Source: ChEMBL document CHEMBL3046835, “Insecticidal activity influence of beta-cypermethrin on the pathogenicity of Beauveria bassiana against Aleurodicus disperses” (Crop Prot, 2013)
≈ marks a conversion by molar mass, not a printed value.

How the values were obtained:
Beauveria bassiana [1] = test: Effect on Beauveria bassiana Bb-N1 conidial germination at 2 mg/L measured at 27 +/-2 degC after 24 hr (reference value: 94.85 +/-2.13%); format: ADME, organism-based; settings: in vivo
Aleurodicus dispersus [2] = test: Insecticidal activity against third-instar nymph stage of Aleurodicus dispersus in guava plant leaves assessed as mortality at 8 mg/L applied via hand sprayer measured after 3 days in presence of 10^8 Beauveria bassiana conidial suspension under field conditions (reference value: 22.2 +/-3.15%); format: functional; settings: 72 h
Aleurodicus dispersus [3] = test: Insecticidal activity against third-instar nymph stage of Aleurodicus dispersus in guava plant leaves assessed as mortality at 8 mg/L applied via hand sprayer measured after 9 days in presence of 10^8 Beauveria bassiana conidial suspension under field conditions (reference value: 42.3 +/-3.58%); format: functional; settings: 216 h
Beauveria bassiana [4] = test: Inhibition of Beauveria bassiana Bb-N1 mycelial growth at 10 mg/L measured at 27 +/-2 degC after 10 days (reference value: 2.4 +/-0.19%); format: organism-based; parameters: scale not given: the % may be the effect or the level left; settings: in vivo, 240 h
Aleurodicus dispersus [5] = test: Insecticidal activity against third-instar nymph stage of Aleurodicus dispersus in guava leaves assessed as mortality at 5 mg/l treated for 15 s measured at 27 +/-2 degC after 48 hr (reference value: 3%); format: functional
Aleurodicus dispersus [6] = test: Insecticidal activity against third-instar nymph stage of Aleurodicus dispersus in guava plant leaves assessed as mortality at 2 mg/l measured after 3 days under laboratory conditions (reference value: 2%); format: functional; settings: 72 h
Aleurodicus dispersus [7] = test: Insecticidal activity against third-instar nymph stage of Aleurodicus dispersus in guava leaves assessed as mortality treated for 15 s measured at 27 +/-2 degC after 48 hr; format: functional
Aleurodicus dispersus [8] = test: Insecticidal activity against third-instar nymph stage of Aleurodicus dispersus in guava plant leaves assessed as mortality at 2 mg/L applied via hand sprayer measured after 6 days in presence of 10^8 Beauveria bassiana conidial suspension under field conditions (reference value: 26.9 +/-3.04%); format: functional; settings: 144 h
Aleurodicus dispersus [9] = test: Insecticidal activity against third-instar nymph stage of Aleurodicus dispersus in guava plant leaves assessed as mortality at 4 mg/L applied via hand sprayer measured after 3 days in presence of 10^8 Beauveria bassiana conidial suspension under field conditions (reference value: 22.2 +/-3.15%); format: functional; settings: 72 h
Aleurodicus dispersus [10] = test: Insecticidal activity against third-instar nymph stage of Aleurodicus dispersus in guava plant leaves assessed as mortality at 4 mg/L applied via hand sprayer measured after 6 days in presence of 10^8 Beauveria bassiana conidial suspension under field conditions (reference value: 26.9 +/-3.04%); format: functional; settings: 144 h
Aleurodicus dispersus [11] = test: Insecticidal activity against third-instar nymph stage of Aleurodicus dispersus in guava plant leaves assessed as mortality at 4 mg/l measured after 3 days in presence of 10^8 Beauveria bassiana conidial suspension under laboratory conditions (reference value: 24.3 +/-1.03%); format: functional; settings: 72 h
Aleurodicus dispersus [12] = test: Insecticidal activity against third-instar nymph stage of Aleurodicus dispersus in guava plant leaves assessed as mortality at 4 mg/l measured after 3 days under laboratory conditions (reference value: 2%); format: functional; settings: 72 h
Aleurodicus dispersus [13] = test: Insecticidal activity against third-instar nymph stage of Aleurodicus dispersus in guava plant leaves assessed as mortality at 2 mg/L applied via hand sprayer measured after 3 days in presence of 10^8 Beauveria bassiana conidial suspension under field conditions (reference value: 22.2 +/-3.15%); format: functional; settings: 72 h
Aleurodicus dispersus [14] = test: Insecticidal activity against third-instar nymph stage of Aleurodicus dispersus in guava plant leaves assessed as mortality at 8 mg/l measured after 9 days under laboratory conditions (reference value: 3%); format: functional; settings: 216 h
Aleurodicus dispersus [15] = test: Insecticidal activity against third-instar nymph stage of Aleurodicus dispersus in guava leaves assessed as mortality at 20 mg/l treated for 15 s measured at 27 +/-2 degC after 48 hr (reference value: 3%); format: functional
Aleurodicus dispersus [16] = test: Insecticidal activity against third-instar nymph stage of Aleurodicus dispersus in guava leaves assessed as mortality at 10 mg/l treated for 15 s measured at 27 +/-2 degC after 24 hr (reference value: 2%); format: functional
Aleurodicus dispersus [17] = test: Insecticidal activity against third-instar nymph stage of Aleurodicus dispersus in guava leaves assessed as mortality at 40 mg/l treated for 15 s measured at 27 +/-2 degC after 48 hr (reference value: 3%); format: functional
Beauveria bassiana [18] = test: Inhibition of Beauveria bassiana Bb-N1 mycelial growth at 8 mg/L measured at 27 +/-2 degC after 10 days (reference value: 2.4 +/-0.19%); format: organism-based; parameters: scale not given: the % may be the effect or the level left; settings: in vivo, 240 h
Aleurodicus dispersus [19] = test: Insecticidal activity against third-instar nymph stage of Aleurodicus dispersus in guava plant leaves assessed as mortality at 4 mg/l measured after 9 days in presence of 10^8 Beauveria bassiana conidial suspension under laboratory conditions (reference value: 45.7 +/-3.18%); format: functional; settings: 216 h
Aleurodicus dispersus [20] = test: Insecticidal activity against third-instar nymph stage of Aleurodicus dispersus in guava plant leaves assessed as mortality at 2 mg/l measured after 6 days in presence of 10^8 Beauveria bassiana conidial suspension under laboratory conditions (reference value: 32.8 +/-2.39%); format: functional; settings: 144 h
Aleurodicus dispersus [21] = test: Insecticidal activity against third-instar nymph stage of Aleurodicus dispersus in guava plant leaves assessed as mortality at 2 mg/L applied via hand sprayer measured after 3 days under field conditions (reference value: 3%); format: functional; settings: 72 h
Aleurodicus dispersus [22] = test: Insecticidal activity against third-instar nymph stage of Aleurodicus dispersus in guava plant leaves assessed as mortality at 4 mg/l measured after 6 days under laboratory conditions (reference value: 3%); format: functional; settings: 144 h
Aleurodicus dispersus [23] = test: Insecticidal activity against third-instar nymph stage of Aleurodicus dispersus in guava plant leaves assessed as mortality at 2 mg/l measured after 3 days in presence of 10^8 Beauveria bassiana conidial suspension under laboratory conditions (reference value: 24.3 +/-1.03%); format: functional; settings: 72 h
Beauveria bassiana [24] = test: Effect on Beauveria bassiana Bb-N1 conidial germination at 4 mg/L measured at 27 +/-2 degC after 24 hr (reference value: 94.85 +/-2.13%); format: ADME, organism-based; settings: in vivo
Beauveria bassiana [25] = test: Inhibition of Beauveria bassiana Bb-N1 mycelial growth at 4 mg/L measured at 27 +/-2 degC after 10 days (reference value: 2.4 +/-0.19%); format: organism-based; parameters: scale not given: the % may be the effect or the level left; settings: in vivo, 240 h
Beauveria bassiana [26] = test: Inhibition of Beauveria bassiana Bb-N1 mycelial growth at 2 mg/L measured at 27 +/-2 degC after 10 days (reference value: 2.4 +/-0.19%); format: organism-based; parameters: scale not given: the % may be the effect or the level left; settings: in vivo, 240 h
Aleurodicus dispersus [27] = test: Insecticidal activity against third-instar nymph stage of Aleurodicus dispersus in guava leaves assessed as mortality at 2.5 mg/l treated for 15 s measured at 27 +/-2 degC after 48 hr (reference value: 3%); format: functional
Aleurodicus dispersus [28] = test: Insecticidal activity against third-instar nymph stage of Aleurodicus dispersus in guava plant leaves assessed as mortality at 8 mg/l measured after 9 days in presence of 10^8 Beauveria bassiana conidial suspension under laboratory conditions (reference value: 45.7 +/-3.18%); format: functional; settings: 216 h

CC1(C)[C@H](C=C(Cl)Cl)[C@H]1C(=O)O[C@@H](C#N)c1cccc(Oc2ccccc2)c1 [BETA-CYPERMETHRIN]
germination rate (Beauveria bassiana [1]): 93.78% | mortality at 8 µg/mL (Aleurodicus dispersus [2]): 42.3% | mortality at 8 µg/mL (Aleurodicus dispersus [3]): 63.7% | Activity (Beauveria bassiana [4]): 8.2% | mortality at 5 µg/mL (Aleurodicus dispersus [5]): 32.3% | mortality at 2 µg/mL (Aleurodicus dispersus [6]): 28.7% | LC95 (Aleurodicus dispersus [7]): 1768.57 µg/mL (≈ 4250 µM) | LC50 (Aleurodicus dispersus [7]; Aleurodicus dispersus, Nymph stage, 48 h): 18.4 µg/mL (≈ 44.1 µM) | mortality at 2 µg/mL (Aleurodicus dispersus [8]): 50.9% | mortality at 4 µg/mL (Aleurodicus dispersus [9]): 37.6% | mortality at 4 µg/mL (Aleurodicus dispersus [10]): 60.5% | mortality at 4 µg/mL (Aleurodicus dispersus [11]): 74.3% | mortality at 4 µg/mL (Aleurodicus dispersus [12]): 34.1% | mortality at 2 µg/mL (Aleurodicus dispersus [13]): 32.3% | mortality at 8 µg/mL (Aleurodicus dispersus [14]): 39.3% | mortality at 20 µg/mL (Aleurodicus dispersus [15]): 52.8% | mortality at 10 µg/mL (Aleurodicus dispersus [16]): 23.1% | mortality at 40 µg/mL (Aleurodicus dispersus [17]): 60.3% | Activity (Beauveria bassiana [18]): 4.4% | mortality at 4 µg/mL (Aleurodicus dispersus [19]): 77.6% | mortality at 2 µg/mL (Aleurodicus dispersus [20]): 75.3% | mortality at 2 µg/mL (Aleurodicus dispersus [21]): 20.9% | mortality at 4 µg/mL (Aleurodicus dispersus [22]): 34.1% | mortality at 2 µg/mL (Aleurodicus dispersus [23]): 67.7% | germination rate (Beauveria bassiana [24]): 93.15% | Activity (Beauveria bassiana [25]): 3.1% | Activity (Beauveria bassiana [26]): 2.7% | mortality at 2.5 µg/mL (Aleurodicus dispersus [27]): 25.2% | mortality at 8 µg/mL (Aleurodicus dispersus [28]): 80.6%
